Data: US6242494A, “Substituted β-amino acid inhibitors of methionine aminopeptidase-2” (Abbott Laboratories, priority 1999, dated 2001)
Structures can show the parent of a compound that is named as a salt.

Target: T1, methionine aminopeptidase-2 (MetAP2) (Homo sapiens, UniProt P50579)
T1 construct: made in house; host or cells: insect cells, baculovirus system (secreted, purified from culture supernatant)
Assay: Inhibition of MetAP2 enzyme activity (96-well, Met-Ala-Ser substrate, L-amino acid oxidase/peroxidase/ortho-dianisidine, 450 nm)
Format: biochemical
Conditions: IC50, recombinant MetAP2 4 μg/mL, pH 7.4, Met-Ala-Ser substrate, 20 minutes
Method: The ability of compounds of the present invention to inhibit methionine aminopeptidase 2 was evaluated using the following assay.
Assays for MetAP2 enzyme activity and MetAP2 inhibition were performed in 96-well microtiter plates. Compounds to be tested for MetAP2 inhibition were dissolved in dimethyl-sulfoxide at 10 mM and diluted ten-fold in assay buffer ([…], pH 7.4, 100 mM NaCl). Ten microliters of solution of each compound to be tested for inhibition were introduced into each cell of the plate, with each compound being tested in triplicate.
The absorbence at 450 nanometers was measured every 20 seconds over a period of twenty minutes using an automaic plate reader (Molecular Devices, CA, USA). The Vmax in mOD/min, calculated for each well was used to represent MetAP2 activity. The IC50 for each inhibitor was obtained by plotting the remaining MetAP2 activity versus inhibitor concentration.

T1 sequence (P50579 whole entry): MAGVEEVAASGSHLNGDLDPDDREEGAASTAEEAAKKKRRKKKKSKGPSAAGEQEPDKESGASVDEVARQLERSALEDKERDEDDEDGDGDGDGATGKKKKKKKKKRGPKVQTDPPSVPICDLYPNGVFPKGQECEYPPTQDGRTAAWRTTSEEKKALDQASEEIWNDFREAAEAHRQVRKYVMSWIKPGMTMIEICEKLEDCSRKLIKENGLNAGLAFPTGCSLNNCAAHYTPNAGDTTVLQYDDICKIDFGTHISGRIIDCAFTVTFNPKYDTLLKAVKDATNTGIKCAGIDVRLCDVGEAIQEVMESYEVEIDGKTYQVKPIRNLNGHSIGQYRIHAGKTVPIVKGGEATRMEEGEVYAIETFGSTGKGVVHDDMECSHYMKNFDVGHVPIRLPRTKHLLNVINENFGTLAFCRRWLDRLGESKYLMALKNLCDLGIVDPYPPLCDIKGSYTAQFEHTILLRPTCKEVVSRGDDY

`Cc1ccc(S(=O)(=O)NCCCCNC(=O)C(O)[C@H](N)CC2CCCCC2)cc1` (stereo partly drawn) [Example 80, (2RS,3R)-3-amino-2-hydroxy-4-cyclohexyl)butanoyl-(4-(4-toluenesulfonyl)aminobutyl)amide hydrochloride] showed an IC50 of 1300 nM.

Compound `COc1ccc(S(=O)(=O)NCCCCNC(=O)C(O)[C@H](N)CC2CCCCC2)cc1OC` (mixture of isomers) [Example 85, (2RS,3R)-3-amino-4-cyclohexyl-N-(4-(((3,4-dimethoxyphenyl)sulfonyl)amino)butyl)-2-hydroxybutanamide hydrochloride] has an IC50 of 3200 nM.

`N[C@H](CC1CCCCC1)C(O)C(=O)Nc1cccc(OC(F)(F)F)c1` (mixture of isomers) [Example 170, (2RS,3R)-3-amino-4-cyclohexyl-2-hydroxy-N-(3-(trifluoromethoxy)phenyl)butanamide hydrochloride] was tested, and the IC50 was 1000 nM.

`N[C@H](CC1CCCCC1)C(O)C(=O)Nc1ccccc1OC(F)(F)F` (stereo partly drawn) [Example 169, (2RS,3R)-3-amino-4-cyclohexyl-2-hydroxy-N-(2-(trifluoromethoxy)phenyl)butanamide hydrochlordie] was tested, and the IC50 was 3300 nM.

`C[C@H](NC(=O)C(O)[C@H](N)CC1CCCCC1)C(=O)NCCCN1CCCC1=O` (stereo partly drawn) [Example 64, ((b 2RS,3R)-3-amino-2-hydroxy-4-cyclohexyl)butanoyl-L-alanyl-(2-pyrrolidinopropyl)amide hydrochloride] gave an IC50 of 19000 nM.

`CCC(=O)OC[C@H](C)NC(=O)C(O)[C@H](N)CC1CCCCC1` (stereo partly drawn) [Example 48, (2RS,3R,2'S)-N-((2-propionyloxypropyl)-3-amino-b2-hydroxy-$-cyclohexyl)butanamide hydrochloride] gave an IC50 of 1500 nM.

`N[C@H](CC1CCCCC1)C(O)C(=O)NCCc1ccc(Cl)cc1` (mixture of isomers) [Example 198, (2RS,3R)-3-amino-N-(4-chlorophenethyl)-4-cyclohexyl-2-hydroxybutanamide hydrochloride] was tested, and the IC50 was 840 nM.

Work on `COc1ccccc1CCNC(=O)C(O)[C@H](N)CC1CCCCC1` (mixture of isomers) [Example 197, (2RS,3R)-3-amino-4-cyclohexyl-2-hydroxy-N-(2-methoxyphenethyl)butanamide hydrochloride] yielded an IC50 of 580 nM.

With `CC(C)(Cc1ccc(F)cc1)NC(=O)C(O)[C@H](N)CC1CCCCC1` (mixture of isomers) [Example 227, (2RS,3R)-3-amino-4-cyclohexyl-N-(2-(4-fluorophenyl)-1,1-dimethylethyl)-2-hydroxybutanamide Hydrochloride] the IC50 was 880 nM.

In the case of `CSCC[C@@H](N)C(O)C(=O)NCCc1ccccn1` (stereo partly drawn) [Example 10, (2RS,3R)-N-(2-(2-pyridyl)ethyl)-3-amino-2-hydroxy-5-(methylthio)pentanamidedihydrochloride], the IC50 is reported as 3600 nM.

For `N[C@H](CC1CCCCC1)C(O)C(=O)NC1CCCC1` (mixture of isomers) [Example 207, (2RS,3R)-3-amino-4-cyclohexyl-N-cyclopentyl-2-hydroxybutanamide Hydrochloride], the IC50 was 4100 nM.

Compound `COc1cc2c(cc1NC(=O)C(O)[C@H](N)CC1CCCCC1)oc1ccccc12` (mixture of isomers) [Example 179, (2RS,3R)-3-amino-4-cyclohexyl-2-hydroxy-N-(2-methoxydibenzo(b,d)furan-3-yl)butanamide hydrochloride] has an IC50 of 4900 nM.

Compound `CC(C)CCCC(C)NC(=O)C(O)[C@H](N)CC1CCCCC1` (stereo partly drawn) [Example 211, (2RS,3R)-3-amino-4-cyclohexyl-N-(1.5-dimethylhexyl)-2-hydroxybutanamide Hydrochloride] has an IC50 of 2400 nM.

In the case of `CC(NC(=O)C(O)[C@H](N)CC1CCCCC1)c1cccc2ccccc12` (stereo partly drawn) [Example 101, (2RS,3R,1'RS)-3-Amino-4-cyclohexyl-2-hydroxy-N-(1-(1-naphthyl)ethyl)butanamide Hydrochloride], the IC50 is reported as 310 nM.

Work on `CCOC(=O)CCCNC(=O)C(O)[C@H](N)Cc1ccccc1` (mixture of isomers) [Example 21, (2RS,3R)-N-(3-(carboethoxy)propyl)-3-amino-2-hydroxy-4-phenyl-butanamide hydrochloride] yielded an IC50 of 14000 nM.

Compound `CCOC(=O)C(C)(C)NC(=O)C(O)[C@H](N)CCSCC` (stereo partly shown) [Example 35, hydrochloride] has an IC50 of 110 nM.

`COC(=O)c1ccc(COC(=O)[C@H](C)NC(=O)C(O)[C@H](N)CC2CCCCC2)cc1` (stereo partly drawn) [Example 94, (2RS,3R)-3-Amino-2-hydroxy-4-cyclohexyl)butanoyl-L-alanine 4-methoxycarbonylbenzyl Ester Hydrochloride] showed an IC50 of 910 nM.

With `COc1ccc(NC(C)=O)cc1NC(=O)C(O)[C@H](N)CC1CCCCC1` (mixture of isomers) [Example 178, (2RS,3R)-N-(5-(acetylamino)-2-methoxyphenyl)-3-amino-4-cyclohexyl-2-hydroxybutanamide hydrochloride] the IC50 was 11000 nM.

For `N[C@H](CC1CCCCC1)C(O)C(=O)Nc1ccccc1Cl` (mixture of isomers) [Example 149, (2RS,3R)-3-amino-N-(2-chlorophenyl)-4-cyclohexyl-2-hydroxybutanamide], the IC50 was 930 nM.

Work on `COc1cc(OC)c(NC(=O)C(O)[C@H](N)CC2CCCCC2)cc1Cl` (mixture of isomers) [Example 180, (2RS,3R)-3-amino-N-(5-chloro-2,4-dimethoxyphenyl)-4-cyclohexyl-2-hydroxybutanamide hydrochloride] yielded an IC50 of 2000 nM.

For `N[C@H](CC1CCCCC1)C(O)C(=O)Nc1cccc(Oc2ccccc2)c1` (mixture of isomers) [Example 162, (2RS,3R)-3-amino-4-cyclohexyl-2-hydroxy-N-(3-phenoxyphenyl)butanamide hydrochloride], the IC50 was 1200 nM.

Compound `CC(C)COCCCNC(=O)C(O)[C@H](N)CC1CCCCC1` (mixture of isomers) [Example 214, (2RS,3R)-3-amino-4-cyclohexyl-2-hydroxy-N-(3-isobutoxypropyl)butanamide Hydrochloride] has an IC50 of 2800 nM.

Work on `CSCC[C@@H](N)C(O)C(=O)NCCc1cccnc1` (mixture of isomers) [Example 32, (2RS,3R)-N-(2-(3-pyridyl)ethyl)-3-amino-2-hydroxy-5-(methylthio)pentanamide] yielded an IC50 of 1400 nM.

Work on `N[C@H](CC1CCCCC1)C(O)C(=O)Nc1ccc(N2CCOCC2)cc1` (mixture of isomers) [Example 215, (2RS,3R)-3-amino-4-cyclohexyl-2-hydroxy-N-(4-(4-morpholinyl)phenyl)butanamide Hydrochloride] yielded an IC50 of 1300 nM.

For `CCSCC[C@@H](N)C(O)C(=O)NCCCCCNS(=O)(=O)c1cccc2c(N(C)C)cccc12` (stereo partly shown) [Example 79, dihydrochloride], the IC50 was 100 nM.

`COc1ccc([N+](=O)[O-])cc1NC(=O)C(O)[C@H](N)CC1CCCCC1` (mixture of isomers) [Example 160, (2RS,3R)-3-amino-4-cyclohexyl-2-hydroxy-N-(2-methoxy-5-nitrophenyl)butanamide hydrochloride] showed an IC50 of 900 nM.

Compound `COc1cc(NC(=O)C(O)[C@H](N)CC2CCCCC2)cc(OC)c1OC` (mixture of isomers) [Example 225, (2RS,3R)-3-amino-4-cyclohexyl-2-hydroxy-N-(3,4,5-trimethoxyphenyl)butanamide Hydrochloride] has an IC50 of 350 nM.

In the case of `N[C@H](CC1CCCCC1)C(O)C(=O)NCCCCNS(=O)(=O)c1ccc2ccccc2c1` (mixture of isomers) [Example 87, (2RS,3R)-3-amino-4-cyclohexyl-2-hydroxy-N-(4-((2-naphthylsulfonyl)amino)butyl)butanamide hydrochloride], the IC50 is reported as 2700 nM.

With `CN(C)c1cccc2c(S(=O)(=O)NCCCCCNC(=O)C(O)[C@H](N)CC3CCCCC3)cccc12` (stereo partly drawn) [Example 55, (2RS,3R) N-(monodansylcadaverenyl-3-amino-2-hydroxy-4-cyclohexyl)butanamidedihydrochloride] the IC50 was 2700 nM.

`CCC(=O)OC[C@@H](C)NC(=O)C(O)[C@H](N)CC1CCCCC1` (stereo partly shown) [Example 51, hydrochloride] was tested, and the IC50 was 5000 nM.

With `CC(C)(C)c1ccc(CNC(=O)C(O)[C@H](N)CC2CCCCC2)cc1` (stereo partly drawn) [Example 156, (2RS,3R)-3-amino-N-(4-tert-butyl)benzyl-4-cyclohexyl-2-hydroxybutanamide] the IC50 was 3900 nM.

Compound `CC(C)CCC(C)NC(=O)C(O)[C@H](N)CC1CCCCC1` (mixture of isomers) [Example 217, (2RS,3R)-3-amino-4-cyclohexyl-N-(1,4-dimethylpentyl)-2-hydroxybutanamide Hydrochloride] has an IC50 of 1800 nM.

With `CC(C)(C)c1ccc(NC(=O)C(O)[C@H](N)CC2CCCCC2)cc1` (stereo partly shown) [Example 150] the IC50 was 3100 nM.

With `COc1cc(Cl)c(C)cc1NC(=O)C(O)[C@H](N)CC1CCCCC1` (mixture of isomers) [Example 176, (2RS,3R)-3-amino-N-(4-chloro-2-methoxy-5-methylphenyl)-4-cyclohexyl-2-hydroxybutanamide hydrochloride] the IC50 was 3400 nM.

For `C[C@@H](NC(=O)C(O)[C@H](N)CC1CCCCC1)c1cccc2ccccc12` (mixture of isomers) [Example 134, (2RS,3R)-3-amino-4-cyclohexyl-2-hydroxy-N-((1R)-1-(1-naphthyl)ethyl)butanamide hydrochloride], the IC50 was 3100 nM.

Work on `N[C@H](CC1CCCCC1)C(O)C(=O)Nc1ccccc1Oc1ccccc1` (mixture of isomers) [Example 183, (2RS,3R)-3-amino-4-cyclohexyl-2-hydroxy-N-(2-phenoxyphenyl)butanamide hydrochloride] yielded an IC50 of 8700 nM.

Compound `CSCC[C@@H](N)C(O)C(=O)N(C)CCc1ccccc1` (stereo partly drawn) [Example 33, (2RS,3R)-3-amino-2-hydroxy-N-methyl-5-(methylthio)-N-phenethylpentanaamide hydrochloride] has an IC50 of 2500 nM.
